Consider one compound from patent publication US20090184006A1, “METHOD FOR THE DETERMINATION OF THE ACTIVITY OF THE ORGANIC CATION TRANSPORTER” (SANOFI-AVENTIS, priority 2006, published 2009).

Each structure is given as a SMILES string.

Experiment [1] deals with T1, rOCT2 (slc22a2) (Rattus norvegicus, UniProt Q9R0W2).
T1 construct: expressed in transfected cells; host or cells: CHO cells, stably transfected; membrane fragments immobilised on the sensor chip
T1 sequence (Q9R0W2 with tags, fused parts or gaps limits assumed): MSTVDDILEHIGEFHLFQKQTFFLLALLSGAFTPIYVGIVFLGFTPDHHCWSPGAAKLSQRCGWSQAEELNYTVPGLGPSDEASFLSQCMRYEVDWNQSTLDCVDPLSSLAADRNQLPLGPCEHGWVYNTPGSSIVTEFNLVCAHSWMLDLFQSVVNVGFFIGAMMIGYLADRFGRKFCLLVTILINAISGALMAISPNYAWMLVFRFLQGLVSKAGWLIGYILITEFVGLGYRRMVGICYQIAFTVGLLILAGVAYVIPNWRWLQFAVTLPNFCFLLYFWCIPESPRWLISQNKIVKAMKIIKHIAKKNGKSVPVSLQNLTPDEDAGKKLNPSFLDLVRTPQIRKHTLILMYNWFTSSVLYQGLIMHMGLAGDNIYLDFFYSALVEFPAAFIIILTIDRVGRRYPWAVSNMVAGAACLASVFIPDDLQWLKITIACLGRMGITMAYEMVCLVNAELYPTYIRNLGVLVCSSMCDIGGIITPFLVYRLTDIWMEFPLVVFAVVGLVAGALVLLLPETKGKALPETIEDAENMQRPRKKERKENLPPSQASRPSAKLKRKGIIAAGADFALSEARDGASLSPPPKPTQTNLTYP
In words: cell free electrophysiological sensor chip assay, inhibition of choline-induced current, rOCT2 CHO cell membranes. It counts as biochemical. The settings on record: 10 mM choline as substrate, pH 7.4, read-out: IC50 of TBA of rOCT2. As for the experimental part: IC50 was determined using 10 mM choline as a substrate.
(§1) After harvesting the cells from a virally transfected Sf9 or HighFive suspension cell line or an stably transfected adherent CHO cell line via centrifugation, aliquots of approx. 2 g wet weight cells were quick-frozen in liquid nitrogen and stored at −80° C. for further preparation.
(§2) The membrane fragments were prepared by cell rapture. Cells were homogenized by the nitrogen cell disruption method utilizing a Parr Cell Disruption Bomb (Parr Instrument Company, Illinois, USA) or the Dounce homogenisation method utilizing a Dounce Homogenisator (7 ml from Novodirect GmbH, Kehl/Rhein, Germany) and the suspension centrifuged 10 min at 4° C. and 680 g and 10 min at 4° C. and 6100 g. The supernatants were collected and again centrifuged for 1 h at 4° C. and 100,000 g in SW41 swing-out rotor.
(§3) Biosensors were prepared according to the following protocol. • 1. Addition of 30 μl mercaptane solution (2% mercaptane in isopropanol) to biosensor • 2. Incubation time: 15 min • 3. Rinsing with 3×70 μl isopropanol • 4. Vacuum dry biosensor • 5. Drying time: 30 min • 6. […]
(§4) For the determination of its activity, the OCT protein was treated consecutively with a washing, non-activating and activating solution and the electrical current was measured when changing from charging to activating treatment. […]

The target of experiment [2] is T2, hOCT2 (SLC22A2) (Homo sapiens, UniProt O15244, S270A).
T2 construct: expressed in transfected cells; host or cells: CHO cells, stably transfected; membrane fragments immobilised on the sensor chip
T2 sequence (O15244 1-555 S270A): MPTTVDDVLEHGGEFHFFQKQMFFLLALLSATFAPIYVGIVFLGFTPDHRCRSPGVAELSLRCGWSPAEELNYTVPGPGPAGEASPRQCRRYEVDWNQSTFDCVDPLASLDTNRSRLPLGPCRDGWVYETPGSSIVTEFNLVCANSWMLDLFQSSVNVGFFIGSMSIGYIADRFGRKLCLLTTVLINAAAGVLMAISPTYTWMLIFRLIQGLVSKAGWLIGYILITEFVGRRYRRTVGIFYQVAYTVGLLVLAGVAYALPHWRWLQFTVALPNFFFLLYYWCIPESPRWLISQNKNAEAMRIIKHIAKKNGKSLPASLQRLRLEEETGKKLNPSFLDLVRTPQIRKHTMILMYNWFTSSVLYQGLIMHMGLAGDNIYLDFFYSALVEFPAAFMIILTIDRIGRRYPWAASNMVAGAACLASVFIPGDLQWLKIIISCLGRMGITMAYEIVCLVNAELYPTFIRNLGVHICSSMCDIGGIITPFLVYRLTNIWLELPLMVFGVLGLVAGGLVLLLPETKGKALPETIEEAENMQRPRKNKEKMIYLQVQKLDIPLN
In words: cell free electrophysiological sensor chip assay, inhibition of choline-induced current, hOCT2 CHO cell membranes. It counts as biochemical. The settings on record: 30 mM choline as substrate (FIG. 4B legend), pH 7.4, read-out: IC50 of TBA of hOCT2. As for the experimental part:
IC50 was determined using 30 mM choline as a substrate.
as §1, §2, §3, §4

On to `CCCC[N+](CCCC)(CCCC)CCCC` [TBA], for which the IC50 (as a rule, the point on the concentration scale where inhibition reaches its midpoint) was 3.5 µM in experiment [1] and 2.9 µM in experiment [2].
